Values quoted from earlier work as cited in patent US12127976B2, “Eye-mountable therapeutic devices, and associated systems and methods” (Twenty Twenty Therapeutics LLC, priority 2018, dated 2024).
Where a name gives a salt, the structure may show the parent alone.

Assays:
[1] = after topical administration; formulated as salts
[2] = in aqueous humor

CC(C)NCC(O)COc1ccc(CCOCC2CC2)cc1 (stereo not drawn) [betaxolol]
time at which the maximum effect can be detected [1]: about 2 hours

O=C(O)CCC/C=C\C[C@@H]1[C@@H](CC[C@@H](O)CCc2ccccc2)[C@H](O)C[C@@H]1O [latanoprost acid]
estimated half-life [2]: ~2.8 h

CC(C)(C)NC[C@H](O)COc1nsnc1N1CCOCC1 [timolol maleate]
time at which the maximum effect can be detected [1]: about 2 hours
